Test results published in patent EP0584797A2, “Novel cephalosporin compounds and processes for the preparation thereof” (LUCKY LTD., priority 1992, dated 1994).
Converted amounts (≈) assume the structure as drawn.

Experiments:
Assay in all cases: minimal inhibitory concentration, two-fold agar dilution
Type in all cases: cell-based
[1] = tested on: Acinetobacter calcoaceticus ATCC 15473; details: ATCC15473, Muller-Hinton agar, 37°C, 20 hours, read-out: MIC values against the standard strains
Protocol: (§1) These MIC values were taken by employing a two-fold dilution method: that is, two-fold serial dilutions of each of the test compounds were made and dispersed in a Muller-Hinton agar medium; 2µl of the standard test strain which had the 10⁷ CFU(Colony Forming Unit) per ml was inoculated on the medium; and these were incubated at 37°C for 20 hours.

[2] = tested on: Bacillus cereus ATCC 11778; details: ATCC11778, Muller-Hinton agar, 37°C, 20 hours, read-out: MIC values against the standard strains
Protocol: as §1

[3] = tested on: Bacillus megaterium ATCC 9885; details: Priestia megaterium, ATCC9885; Muller-Hinton agar; 37°C; 20 hours; read-out: MIC values against the standard strains
Protocol: as §1

[4] = tested on: Citrobacter freundii ATCC 8090; details: ATCC8090, Muller-Hinton agar, 37°C, 20 hours, read-out: MIC values against the standard strains
Protocol: as §1

[5] = tested on: Enterobacter aerogenes ATCC 29751; details: Klebsiella aerogenes, ATCC29751; Muller-Hinton agar; 37°C; 20 hours; read-out: MIC values against the standard strains
Protocol: as §1

[6] = tested on: Enterobacter cloacae ATCC 27508; details: ATCC27508, Muller-Hinton agar, 37°C, 20 hours, read-out: MIC values against the standard strains
Protocol: as §1

[7] = tested on: Escherichia coli ATCC 10536; details: ATCC10536, Muller-Hinton agar, 37°C, 20 hours, read-out: MIC values against the standard strains
Protocol: as §1

[8] = tested on: Escherichia coli ATCC 25922; details: ATCC25922, Muller-Hinton agar, 37°C, 20 hours, read-out: MIC values against the standard strains
Protocol: as §1

[9] = tested on: Klebsiella pneumoniae ATCC 10031; details: ATCC10031, Muller-Hinton agar, 37°C, 20 hours, read-out: MIC values against the standard strains
Protocol: as §1

[10] = tested on: Micrococcus luteus ATCC 9341; details: ATCC9341, Muller-Hinton agar, 37°C, 20 hours, read-out: MIC values against the standard strains
Protocol: as §1

[11] = tested on: Morganella morganii ATCC 8076h; details: ATCC8076H, Muller-Hinton agar, 37°C, 20 hours, read-out: MIC values against the standard strains
Protocol: as §1

[12] = tested on: Proteus mirabilis ATCC 25933; details: ATCC25933, Muller-Hinton agar, 37°C, 20 hours, read-out: MIC values against the standard strains
Protocol: as §1

[13] = tested on: Proteus vulgaris ATCC 6059; details: ATCC6059, Muller-Hinton agar, 37°C, 20 hours, read-out: MIC values against the standard strains
Protocol: as §1

[14] = tested on: Providencia rettgeri ATCC 9250; details: ATCC9250, Muller-Hinton agar, 37°C, 20 hours, read-out: MIC values against the standard strains
Protocol: as §1

[15] = tested on: Pseudomonas aeruginosa ATCC 10145; details: ATCC10145, Muller-Hinton agar, 37°C, 20 hours, read-out: MIC values against the standard strains
Protocol: as §1

[16] = tested on: Pseudomonas aeruginosa ATCC 25619; details: ATCC25619, Muller-Hinton agar, 37°C, 20 hours, read-out: MIC values against the standard strains
Protocol: as §1

[17] = tested on: Pseudomonas aeruginosa ATCC 27853; details: ATCC27853, Muller-Hinton agar, 37°C, 20 hours, read-out: MIC values against the standard strains
Protocol: as §1

[18] = tested on: Salmonella typhimurium ATCC 14028; details: Salmonella enterica; Muller-Hinton agar; 37°C; 20 hours; read-out: MIC values against the standard strains
Protocol: as §1

[19] = tested on: Serratia marcescens ATCC 27117; details: ATCC27117, Muller-Hinton agar, 37°C, 20 hours, read-out: MIC values against the standard strains
Protocol: as §1

[20] = tested on: Shigella flexneri ATCC 11836; details: ATCC11836, Muller-Hinton agar, 37°C, 20 hours, read-out: MIC values against the standard strains
Protocol: as §1

[21] = tested on: Shigella sonnei ATCC 11060; details: ATCC11060, Muller-Hinton agar, 37°C, 20 hours, read-out: MIC values against the standard strains
Protocol: as §1

[22] = tested on: Staphylococcus aureus ATCC 10537; details: ATCC10537, Muller-Hinton agar, 37°C, 20 hours, read-out: MIC values against the standard strains
Protocol: as §1

[23] = tested on: Staphylococcus aureus ATCC 6538p; details: ATCC6538P, Muller-Hinton agar, 37°C, 20 hours, read-out: MIC values against the standard strains
Protocol: as §1

[24] = tested on: Staphylococcus epidermidis ATCC 12228; details: ATCC12228, Muller-Hinton agar, 37°C, 20 hours, read-out: MIC values against the standard strains
Protocol: as §1

[25] = tested on: Streptococcus faecalis ATCC 29212; details: Enterococcus faecalis, ATCC29212; Muller-Hinton agar; 37°C; 20 hours; read-out: MIC values against the standard strains
Protocol: as §1

Row | Compound | MIC [1] [µg/mL] | MIC [2] [µg/mL] | MIC [3] [µg/mL] | MIC [4] [µg/mL] | MIC [5] [µg/mL] | MIC [6] [µg/mL] | MIC [7] [µg/mL] | MIC [8] [µg/mL] | MIC [9] [µg/mL] | MIC [10] [µg/mL] | MIC [11] [µg/mL] | MIC [12] [µg/mL] | MIC [13] [µg/mL] | MIC [14] [µg/mL] | MIC [15] [µg/mL] | MIC [16] [µg/mL] | MIC [17] [µg/mL] | MIC [18] [µg/mL] | MIC [19] [µg/mL] | MIC [20] [µg/mL] | other results
1 | CC(C)(O/N=C(\C(=O)N[C@@H]1C(=O)N2C(C(=O)[O-])=C(C[n+]3ccccc3)CS[C@H]12)c1csc(N)n1)C(=O)O [Ceftazidime, reference compound] | 2 (≈ 3.66 µM) | 128 (≈ 234 µM) | 0.25 (≈ 0.457 µM) | 0.13 (≈ 0.238 µM) | 8 (≈ 14.6 µM) | 0.031 (≈ 0.0567 µM) | 0.13 (≈ 0.238 µM) | 0.13 (≈ 0.238 µM) | 0.13 (≈ 0.238 µM) | 0.5 (≈ 0.915 µM) | ≤ 0.008 | 0.063 (≈ 0.115 µM) | 0.063 (≈ 0.115 µM) | ≤ 0.008 | 2 (≈ 3.66 µM) | 1 (≈ 1.83 µM) | 1 (≈ 1.83 µM) | 0.25 (≈ 0.457 µM) | 0.13 (≈ 0.238 µM) | 0.031 (≈ 0.0567 µM) | MIC [21]: 0.13 µg/mL (≈ 0.238 µM); MIC [22]: 4 µg/mL (≈ 7.32 µM); MIC [23]: 8 µg/mL (≈ 14.6 µM); MIC [24]: 4 µg/mL (≈ 7.32 µM); MIC [25]: > 128 µg/mL
2 | CCO/N=C(\C(=O)N[C@@H]1C(=O)N2C(C(=O)[O-])=C(CSc3nc(N)cc(OCC(=O)O)[n+]3C)CS[C@H]12)c1csc(N)n1 [Example 19, 7-[(Z)-2-(2-aminothiazol-4-yl)-2-(ethoxyimino)acetamido]-3-(4-amino-6-carboxymethoxy-1-methylpyrimidinium-2-yl)thiomethyl-3-cephem-4-carboxylate] | 16 (≈ 25.6 µM) | 128 (≈ 205 µM) | 0.25 (≈ 0.4 µM) | 0.063 (≈ 0.101 µM) | 1 (≈ 1.6 µM) | ≤ 0.008 | 0.063 (≈ 0.101 µM) | 0.063 (≈ 0.101 µM) | 0.031 (≈ 0.0496 µM) | 0.13 (≈ 0.208 µM) | ≤ 0.008 | 0.063 (≈ 0.101 µM) | 0.063 (≈ 0.101 µM) | ≤ 0.008 | 32 (≈ 51.2 µM) | 8 (≈ 12.8 µM) | 16 (≈ 25.6 µM) | 0.25 (≈ 0.4 µM) | 0.25 (≈ 0.4 µM) | 0.031 (≈ 0.0496 µM) | MIC [21]: 0.063 µg/mL (≈ 0.101 µM); MIC [22]: 2 µg/mL (≈ 3.2 µM); MIC [23]: 4 µg/mL (≈ 6.4 µM); MIC [24]: 2 µg/mL (≈ 3.2 µM); MIC [25]: 64 µg/mL (≈ 102 µM)
3 | C[n+]1c(-c2ccccc2)cc(N)nc1SCC1=C(C(=O)[O-])N2C(=O)[C@@H](NC(=O)/C(=N\OC(C)(C)C(=O)O)c3csc(N)n3)[C@H]2SC1 [Example 20, 7-[(Z)-2-(2-aminothiazol-4-yl)-2-(carboxyprop-2-oxyimino)acetamido]-3-(4-amino-6-phenyl-1-methylpyrimidinium-2-yl)thiomethyl-3-cephem-4-carboxylate] | 64 (≈ 93.5 µM) | 64 (≈ 93.5 µM) | 0.13 (≈ 0.19 µM) | 0.5 (≈ 0.73 µM) | 4 (≈ 5.84 µM) | 0.13 (≈ 0.19 µM) | 0.25 (≈ 0.365 µM) | 0.5 (≈ 0.73 µM) | 0.13 (≈ 0.19 µM) | 0.25 (≈ 0.365 µM) | ≤ 0.008 | 0.25 (≈ 0.365 µM) | 0.5 (≈ 0.73 µM) | ≤ 0.008 | 16 (≈ 23.4 µM) | 2 (≈ 2.92 µM) | 4 (≈ 5.84 µM) | 1 (≈ 1.46 µM) | 2 (≈ 2.92 µM) | 0.13 (≈ 0.19 µM) | MIC [21]: 0.25 µg/mL (≈ 0.365 µM); MIC [22]: 2 µg/mL (≈ 2.92 µM); MIC [23]: 4 µg/mL (≈ 5.84 µM); MIC [24]: 1 µg/mL (≈ 1.46 µM); MIC [25]: > 128 µg/mL
